Data from US20210177879A1, “VITAMIN D RECEPTOR AGONIST” (Guanghzou University of Chinese Medicine, priority 2018, published 2021).

Experiments:
HT29 transplanted tumor = test: Transplanted tumor of HT29 colon cancer cells in nude mice; format: in vivo; conditions: 2 mg/kg in combination with 5-fluorouracil at half dose (20 mg/kg), once a day; effect comparable to 5-fluorouracil alone 40 mg/kg
Protocol: (§1) The HT29 cells were thawed, and cultured in a changed medium after 24 hours. Medium preparation method: 6% serum, 1% of a bispecific antibody+a 1640 basal medium. After grown to confluent, the cells were digested and subcultured to expand the number of cells. When reached the required amount, the cells were digested by trypsin, centrifuged, and resuspended in PBS to prepare a cell suspension of 1×10^8 cells/ml. A part of the cell suspension was added with the monotropein, desacetyl asperulosidic acid, asperuloside, and asperulosidic acid respectively, and the inhibition rate (%) of tumor cell proliferation by each of these different compounds was examined.
(§2) Male adult nude mice, which had the body weights of 20-24 g, were purchased from Guangdong Medical Laboratory Animal Center. After 7 days of adaptive feeding of the animals, except for the blank group, the remaining animals were injected with 0.2 ml of a cell suspension in PBS at ventrodorsal and scapula sites of them, the response conditions of the animals were observed, and the body weights of the animals were determined once a week. After 2 weeks of observation, the animals were grouped into the following groups according to tumor size: a blank group; a model group; a 5-fluorouracil control group (5-Full, 40 mg/kg); monotropein+5-fluorouracil (2 mg/kg monotropein+20 mg/kg 5-fluorouracil), desacetyl asperulosidic acid+5-fluorouracil (2 mg/kg desacetyl asperulosidic acid+20 mg/kg 5-fluorouracil), asperuloside+5-fluorouracil (2 mg/kg asperuloside+20 mg/kg 5-fluorouracil), asperulosidic acid+5-fluorouracil (2 mg/kg asperulosidic acid+20 mg/kg 5-fluorouracil), these groups being labeled as: Mo, As, Aa, Da. Each group included 8 animals; and administration was conducted once a day.
(§3) The status, death conditions, and eating and drinking conditions of the animals were observed daily. The body weights of the animals were determined once a week and the tumor size of the animals was determined every 4 days. The tumor volume of the animals was determined by using a vernier caliper. After 1 month of administration, the animals were sacrificed after blood was sampled from the orbit thereof, and the tumor was separated and weighed.

[1] = tested on: SW1990 breast cancer cells; test: In vitro proliferation inhibition of SW1990 breast cancer cells; format: cell-based; conditions: concentration of 1 uM; compared with blank control group
Protocol: as §1, with “SW1990” for “HT29”

[2] = tested on: AOM/DSS colon cancer model; test: AOM/DSS colon cancer model, Experiment 2 (colon length, thickness, tumors); format: in vivo, Balb/c mice; conditions: 2 mg/kg once a day
Protocol: (§4) Experimental method: 70 Balb/c mice of 6-8 weeks were purchased from the Experimental Animal Center in Guangzhou University of Chinese Medicine, weighed about 18-22 g, and subjected to adaptive feeding for 10 days. Modeling was divided into three stages. In the first stage, except for the normal group of animals being given saline injection, each of the other animals were intraperitoneally injected with a carcinogen AOM (10 mg/kg), and given free access to 2% DSS water from the next day for 7 days, and then given access to replaced regular drinking water for 14 days. In the second stage, the animals were given free access to 2% DSS water for 10 days, and then given access to replaced regular drinking water for 14 days. In the third stage, the animals were given free access to 2% DSS water for 10 days, and then given access to replaced regular drinking water for 11 days. The normal group was given access to regular drinking water throughout the experiment. The diet, water drinking and body weights of the animals were recorded daily and DAI scores were made, and the animals were killed and harvested at the 10th week. In this experiment, the animals were divided into groups and administrated on the first day of a modeling period of the second stage, where a total of 7 groups were set, each group including 10 animals. The first group was a blank control group (control) that was given access to drinking water by gavage; the second group was a model group (model), in which a total of 10 animals were given access to drinking water by gavage; the third group was a vitamin D3 positive administration control group (VD3, 0.2 mg/kg); and the fourth to seventh groups were given monotropein, desacetyl asperulosidic acid, asperuloside, and asperulosidic acid (groups labeled as: Mo, As, Aa, Da), respectively at a given dose of 2 mg/kg. Dosing was conducted once a day until the end of the experiment. At the end of the experiment, the animals were anesthetized and harvested, and the colon tissue was taken, measured with a ruler for the length, and measured with a vernier caliper for the thickness. The effects of monotropein, desacetyl asperulosidic acid, asperuloside and asperulosidic acid on expression of the vitamin D receptor were detected.

[3] = tested on: transplanted tumor of MB-231 pancreatic cancer cells; test: Transplanted tumor of MB-231 pancreatic cancer cells in nude mice; format: in vivo; conditions: 2 mg/kg in combination with 5-fluorouracil at half dose (20 mg/kg), once a day; effect comparable to 5-fluorouracil alone 40 mg/kg
Protocol: as §1, with “SMB-231 pancreatic cancer” for “HT29”
as §2, with “of a SMB-231 pancreatic cancer cell suspension” for “of a cell suspension”
as §3

vitamin D receptor = test: Expression of vitamin D receptor in colon tissues, Experiment 2 (Western blot, immunohistochemistry); format: in vivo, Balb/c mice; conditions: compared with the blank group; VD3 0.2 mg/kg, four compounds 2 mg/kg
Protocol: as §4

[4] = tested on: transplanted tumor of SW1990 breast cancer cells; test: Transplanted tumor of SW1990 breast cancer cells in nude mice; format: in vivo; conditions: 2 mg/kg in combination with 5-fluorouracil at half dose (20 mg/kg), once a day; effect comparable to 5-fluorouracil alone 40 mg/kg
Protocol: as §1, with “SW1990” for “HT29”
as §2, with “of a SW1990 cell suspension” for “of a cell suspension”
as §3

[5] = tested on: SMB-231 pancreatic cancer cells; test: In vitro proliferation inhibition of SMB-231 pancreatic cancer cells; format: cell-based; conditions: concentration of 1 uM; compared with blank control group
Protocol: as §1, with “SMB-231 pancreatic cancer” for “HT29”

HT29 colon cancer cells = test: In vitro proliferation inhibition of HT29 colon cancer cells; format: cell-based; conditions: concentration of 1 uM; compared with blank control group
Protocol: as §1

For `CC(=O)OCC1=C[C@@H]2OC(=O)C3=CO[C@@H](O[C@@H]4O[C@H](CO)[C@@H](O)[C@H](O)[C@H]4O)[C@H]1[C@@H]32` [asperuloside], the “tumor proliferation in HT29 tumor-bearing mice” value (HT29 transplanted tumor) was “significantly inhibit tumor proliferation”, the “proliferation of SW1990 cells in vitro” value [1] was “significantly inhibit the proliferation” and the “incidence and development of colorectal cancers” value (from here on “incidence and development”) [2] was “inhibiting the incidence and development of colorectal cancers”. The “tumor proliferation in SMB-231 tumor-bearing mice” value [3] was “significantly inhibit tumor proliferation”, the “expression of the vitamin D receptor in the colon tissues (Western blot and immunohistochemistry)” value (from here on “expression of the vitamin D receptor”) (vitamin D receptor) was “promote expression enhancement” and the “tumor proliferation in SW1990 tumor-bearing mice” value [4] was “significantly inhibit tumor proliferation”. The “proliferation of SMB-231 pancreatic cancer cells in vitro” value [5] was “significantly inhibit the proliferation” and the “proliferation of HT29 colorectal cancer cells in vitro” value (HT29 colon cancer cells) was “significantly inhibit the proliferation”.
In the case of `CC(=O)OCC1=C[C@H](O)[C@@H]2C(C(=O)O)=CO[C@@H](O[C@@H]3O[C@H](CO)[C@@H](O)[C@H](O)[C@H]3O)[C@H]12` [asperulosidic acid], the “tumor proliferation in HT29 tumor-bearing mice” value (HT29 transplanted tumor) is reported as “significantly inhibit tumor proliferation”, the “proliferation of SW1990 cells in vitro” value [1] is reported as “significantly inhibit the proliferation” and the “incidence and development” value [2] is reported as “inhibiting the incidence and development of colorectal cancers”. The “tumor proliferation in SMB-231 tumor-bearing mice” value [3] was “significantly inhibit tumor proliferation”, the “expression of the vitamin D receptor” value (vitamin D receptor) was “promote expression enhancement” and the “tumor proliferation in SW1990 tumor-bearing mice” value [4] was “significantly inhibit tumor proliferation”. The “proliferation of SMB-231 pancreatic cancer cells in vitro” value [5] was “significantly inhibit the proliferation” and the “proliferation of HT29 colorectal cancer cells in vitro” value (HT29 colon cancer cells) was “significantly inhibit the proliferation”.
`O=C(O)C1=CO[C@@H](O[C@@H]2O[C@H](CO)[C@@H](O)[C@H](O)[C@H]2O)[C@@H]2C(CO)=C[C@H](O)[C@H]12` [desacetyl asperulosidic acid] was tested, and the “tumor proliferation in HT29 tumor-bearing mice” value (HT29 transplanted tumor) was “significantly inhibit tumor proliferation”, the “proliferation of SW1990 cells in vitro” value [1] was “significantly inhibit the proliferation” and the “incidence and development” value [2] was “inhibiting the incidence and development of colorectal cancers”. For the same compound, the “tumor proliferation in SMB-231 tumor-bearing mice” value [3] was “significantly inhibit tumor proliferation”, the “expression of the vitamin D receptor” value (vitamin D receptor) was “promote expression enhancement” and the “tumor proliferation in SW1990 tumor-bearing mice” value [4] was “significantly inhibit tumor proliferation”. For the same compound, the “proliferation of SMB-231 pancreatic cancer cells in vitro” value [5] was “significantly inhibit the proliferation” and the “proliferation of HT29 colorectal cancer cells in vitro” value (HT29 colon cancer cells) was “significantly inhibit the proliferation”.
In the case of `C=C1CC[C@H](O)C/C1=C/C=C1\CCC[C@]2(C)[C@@H]([C@H](C)CCCC(C)C)CC[C@@H]12` [vitamin D3, reference compound], the “expression of the vitamin D receptor” value (vitamin D receptor) is reported as “promote expression enhancement”.
